Measured values as given in patent US12521393B2, “Cytotoxicity targeting chimeras for CCR2-expressing cells” (GLAXOSMITHKLINE INTELLECTUAL PROPERTY DEVELOPMENT LIMITED, priority 2021, dated 2026).

Key:
[1] = molecular target: T1, CHOK1 cells engineered to overexpress human CCR2 (Homo sapiens, UniProt P41597); assay: Antibody dependent cellular cytotoxicity (ADCC) reporter assay (Example 199); format: cell-based; settings: with anti-cotinine antibody (SEQ ID NO: 11/12), Jurkat FcγRIIIa NFAT-luciferase reporter cells, 12-18 hours, EC50 in molar, average or individual runs; for EC50: read-out: ADCC Reporter Assay pEC50 (converted)
T1 construct: expressed in transfected cells; host or cells: CHOK1
Protocol: An antibody dependent cellular cytoxocity reporter assay was conducted using the following four assay components: (i) ARM compound of Formula (I) targeting CCR2 (concentrations ranging from […] to 10 μM) (ii) anti-cotinine antibody having a heavy chain sequence of SEQ ID NO: 11 and a light chain sequence of SEQ ID NO: 12 (rabbit variable region with human IgG1 Fc domain containing a DE mutation (S239D/1332E)) (concentrations ranging from 0.01 μg/mL to 200 μg/mL); (iii) target cells: CHOK1 cells engineered to overexpress either human CCR2 (typically 1000-20,000 cells per well) and (iv) reporter cells: Jurkat cells engineered to express FcγRIIIa with the reporter gene luciferase under the control of the NFAT promoter (typically 3000-75,000 cells per well). Reagents were combined in a final volume of 20 μL in a 384-well tissue culture treated plate. All four assay components were incubated together for about 12-18 hours. Thereafter, BioGlo Detection reagent (Promega) was added to the wells to lyse the cells and provide a substrate for the luciferase reporter protein. Luminescence signal was measured on a microplate reader and signal: background was calculated by dividing the signal of a test well by the signal obtained when no heterobivalent compound of Formula (I) was added. EC50 calculations were done using Graphpad Prism Software, specifically a nonlinear regression curve fit (Y=Bottom+(Top−Bottom)/(1+10A((LogEC50−X)*HillSlope))).
ARMs compounds of Formula (I) of the invention were tested for ADCC activity in the above assay in or more experimental runs and the results are shown in Table 3 below. Potency of the compounds of Formula (I) of the invention is reported as a pEC50 value. The pEC50 value is the negative log of the EC50 value, wherein the EC50 value is the half maximal effective concentration measured in molar (M). For compounds tested in more than one experimental run, the pEC50 value is reported as an average.

[2] = system: endogenous target monocytes in human PBMC; assay: PBMC ex vivo monocyte depletion flow cytometry assay (Example 200); format: cell-based; settings: with anti-cotinine antibody (SEQ ID NO: 11/12), 18-24 hours, EC50 in molar, read-out: Ex Vivo Depletion Assay pEC50 (converted)
Outline: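 Monocyte depletion is reported as pEC50, averaged or given individually across runs, and read by flow cytometry staining CD45, CD14 and CD4 with a viability dye. Compounds, diluted four-fold over 11 points from 1 mM DMSO stocks, were combined with 30 μg/mL Fc-enhanced anti-cotinine antibody and human PBMC, then incubated 18-24 h at 37° C.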

[3] = molecular target: anti-cotinine antibody (SEQ ID NO: 11/12, rabbit variable region with human IgG1 Fc DE mutation); assay: SPR binding of anti-cotinine antibody to ARM compounds, Biacore T200, 37° C. (Example 202); settings: SPR Biacore T200, 37° C., pH 7.4, antibody SEQ ID NO: 11/12 captured on protein A; Kd in molar
Outline: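 Run at 37 °C in 10 mM HEPES pH 7.4, 150 mM NaCl, 0.005% P20, 1% DMSO, with compounds titrated from 200 nM (five 3-fold steps) over protein A–captured antibody. A 1:1 kinetic model on double-referenced data gave rate constants, Kd as koff/kon and residence time 1/koff; results as pKd, run-averaged.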

[4] = system: CCR2 expressing cells (CD11b+Ly6c+Hi) in peripheral blood; assay: In vivo depletion assay, flow cytometry of peripheral blood (Example 201); set-up: species or system human CCR2 knock-in mice (C57 background); settings: hCCR2 knock-in mice, IV 0.1 mpk compound + 10 mpk anti-cotinine antibody (SEQ ID NO: 13/14), peripheral blood at 48 hr
Outline: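 Flow cytometry of blood collected at study termination quantified percent depletion of CD11b+Ly6c+Hi cells and CCR2 expression, using surface markers CD45, CD3, CD11b, Ly6C, human CCR2 after Fc block, with 7AAD viability stain. Compound given in saline:DMSO:PBS formulation, optionally combined with anti-cotinine antibody, incubated 30 min before administration.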

`CC(C)N(C)[C@@H]1CC[C@H](N2CC[C@H](Nc3ncnc4ccc(C(F)(F)F)cc34)C2=O)[C@H](NC(=O)C2CCC(N3CCC(S(=O)(=O)NCCCCCCNC(=O)[C@H]4CC(=O)N(C)[C@@H]4c4cccnc4)CC3)CC2)C1` (single isomer, unassigned) [Example 149] was tested, and the EC50 [1] was 0.251 nM and the EC50 [2] was 0.251 nM.
With `CC(C)N(C)[C@@H]1CC[C@H](N2CC[C@H](Nc3ncnc4ccc(C(F)(F)F)cc34)C2=O)[C@H](NC(=O)CCOCCOCCOCCOCCOCCOCCOCCOCCOCCOCCOCCOCCOCCOCCOCCOCCOCCOCCOCCOCCOCCOCCOCCNC(=O)C2CC(=O)N(C)C2c2cccnc2)C1` (stereo in doubt) [Example 43, (2R,3R)-N-(72-(((1R,2S,5R)-5-(isopropyl(methyl)amino)-2-((S)-2-oxo-3-((6-(trifluoromethyl)quinazolin-4-yl)amino)pyrrolidin-1-yl)cyclohexyl)amino)-72-oxo-3,6,9,12,15,18,21,24,27,30,33,36,39,42,45,48,51,54,57,60,63,66,69-tricosaoxadoheptacontyl)-1-methyl-5-oxo-2-(pyridin-3-yl)pyrrolidine-3-carboxamide] the “ADCC Reporter Assay pEC50” value [1] was 8.8.
With `CC(C)N(C)[C@@H]1CC[C@H](N2CC[C@H](Nc3ncnc4ccc(C(F)(F)F)cc34)C2=O)[C@H](NC(=O)CCOCCOCCOCCOCCNC(=O)[C@H]2CC(=O)N(C)[C@@H]2c2cccnc2)C1` [Example 39, (2S,3S)-N-(15-(((1R,2S,5R)-5-(Isopropyl(methyl)amino)-2-((S)-2-oxo-3-((6-(trifluoromethyl)quinazolin-4-yl)amino)pyrrolidin-1-yl)cyclohexyl)amino)-15-oxo-3,6,9,12-tetraoxapentadecyl)-1-methyl-5-oxo-2-(pyridin-3-yl)pyrrolidine-3-carboxamide] the EC50 [1] was 15.8 nM and the EC50 [2] was 2510 nM.
`CC(C)N(C)[C@@H]1CC[C@H](N2CC[C@H](Nc3ncnc4ccc(C(F)(F)F)cc34)C2=O)[C@H](N[C@H]2CC[C@@H](C(=O)NCCOCCOCCOCCOCCNC(=O)[C@H]3CC(=O)N(C)[C@@H]3c3cccnc3)CC2)C1` [Example 67] showed an EC50 [1] of 5.01 nM and an EC50 [2] of 3.98 nM.
In the case of `CC(C)N(C)[C@@H]1CC[C@H](N2CC[C@H](Nc3ncnc4ccc(C(F)(F)F)cc34)C2=O)[C@H](NC(=O)C2CCN(C3CCN(C(=O)CCCCCCCCCNC(=O)[C@@H]4CC(=O)N(C)[C@H]4c4cccnc4)CC3)CC2)C1` [Example 157, N-((1R,2S,5R)-5-(Isopropyl(methyl)amino)-2-((S)-2-oxo-3-((6-(trifluoromethyl)quinazolin-4-yl)amino)pyrrolidin-1-yl)cyclohexyl)-1′-(10-((2R,3R)-1-methyl-5-oxo-2-(pyridin-3-yl)pyrrolidine-3-carboxamido)decanoyl)-[1,4′-bipiperidine]-4-carboxamide], the “pKd of Antibody for ARM Compound of Formula (I)” value (“pKd of Antibody” below) [3] is reported as 10.135, the EC50 [2] is reported as 0.631 nM and the “% Depletion of CCR2 expressing cells” value [4] is reported as 79%.
In the case of `CC(C)N(C)[C@@H]1CC[C@H](N2CC[C@H](Nc3ncnc4ccc(C(F)(F)F)cc34)C2=O)[C@H](NC(=O)CCOCCNC(=O)COCCNC(=O)CCOCCNC(=O)[C@H]2CC(=O)N(C)[C@@H]2c2cccnc2)C1` [Example 163, (2S,3S)-N-(19-(((1R,2S,5R)-5-(Isopropyl(methyl)amino)-2-((S)-2-oxo-3-((6-(trifluoromethyl)quinazolin-4-yl)amino)pyrrolidin-1-yl)cyclohexyl)amino)-6,12,19-trioxo-3,10,16-trioxa-7,13-diazanonadecyl)-1-methyl-5-oxo-2-(pyridin-3-yl)pyrrolidine-3-carboxamide], the “pKd of Antibody” value [3] is reported as 9.07, the EC50 [2] is reported as 0.871 nM and the “% Depletion of CCR2 expressing cells” value [4] is reported as 89%.
With `CC(C)N(C)[C@@H]1CC[C@H](N2CC[C@H](Nc3ncnc4ccc(C(F)(F)F)cc34)C2=O)[C@H](NC(=O)CCCNc2c(NCCOCCOCCOCCOCCNC(=O)[C@H]3CC(=O)N(C)[C@@H]3c3cccnc3)c(=O)c2=O)C1` [Example 164, (2S,3S)-N-(14-((2-((4-(((1R,2S,5R)-5-(Isopropyl(methyl)amino)-2-((S)-2-oxo-3-((6-(trifluoromethyl)quinazolin-4-yl)amino)pyrrolidin-1-yl)cyclohexyl)amino)-4-oxobutyl)amino)-3,4-dioxocyclobut-1-en-1-yl)amino)-3,6,9,12-tetraoxatetradecyl)-1-methyl-5-oxo-2-(pyridin-3-yl)pyrrolidine-3-carboxamide] the “pKd of Antibody” value [3] was 9.3225, the EC50 [2] was 1 nM and the “% Depletion of CCR2 expressing cells” value [4] was 86%.
Molecule `CC(C)N(C)[C@@H]1CC[C@H](N2CC[C@H](Nc3ncnc4ccc(C(F)(F)F)cc34)C2=O)[C@H](NC(=O)CCCCCCCCC(=O)NCCCCCCNC(=O)[C@H]2CC(=O)N(C)[C@@H]2c2cccnc2)C1` [Example 166, N1-((1R,2S,5R)-5-(isopropyl(methyl)amino)-2-((S)-2-oxo-3-((6-(trifluoromethyl)quinazolin-4-yl)amino)pyrrolidin-1-yl)cyclohexyl)-N10-(6-((2S,3S)-1-methyl-5-oxo-2-(pyridin-3-yl)pyrrolidine-3-carboxamido)hexyl)decanediamide] has an EC50 [1] of 0.501 nM and an EC50 [2] of 1.26 nM.
For `CC(C)N(C)[C@@H]1CC[C@H](N2CC[C@H](Nc3ncnc4ccc(C(F)(F)F)cc34)C2=O)[C@H](NC(=O)CCOCCOCCOCCNc2c(NCCCNC(=O)[C@H]3CC(=O)N(C)[C@@H]3c3cccnc3)c(=O)c2=O)C1` [Example 169, (2S,3S)-N-(3-((2-((2-(2-(2-(3-(((1R,2S,5R)-5-(Isopropyl(methyl)amino)-2-((S)-2-oxo-3-((6-(trifluoromethyl)quinazolin-4-yl)amino)pyrrolidin-1-yl)cyclohexyl)amino)-3-oxopropoxy)ethoxy)ethoxy)ethyl)amino)-3,4-dioxocyclobut-1-en-1-yl)amino)propyl)-1-methyl-5-oxo-2-(pyridin-3-yl)pyrrolidine-3-carboxamide], the “pKd of Antibody” value [3] was 9.0085, the EC50 [2] was 0.251 nM and the “% Depletion of CCR2 expressing cells” value [4] was 87%.
`CC(C)N(C)[C@@H]1CC[C@H](N2CC[C@H](Nc3ncnc4ccc(C(F)(F)F)cc34)C2=O)[C@H](NC(=O)CCCC(=O)NCCCOCCCNC(=O)CCCNC(=O)[C@H]2CC(=O)N(C)[C@@H]2c2cccnc2)C1` [Example 173, N^1-((1R,2S,5R)-5-(Isopropyl(methyl)amino)-2-((S)-2-oxo-3-((6-(trifluoromethyl)quinazolin-4-yl)amino)pyrrolidin-1-yl)cyclohexyl)-N5-(3-(3-(4-((2S,3S)-1-methyl-5-oxo-2-(pyridin-3-yl)pyrrolidine-3-carboxamido)butanamido)propoxy)propyl)glutaramide] was tested, and the “pKd of Antibody” value [3] was 9.1415, the EC50 [2] was 0.794 nM and the “% Depletion of CCR2 expressing cells” value [4] was 91%.
In the case of `CC(C)N(C)[C@@H]1CC[C@H](N2CC[C@H](Nc3ncnc4ccc(C(F)(F)F)cc34)C2=O)[C@H](NC(=O)CCCC(=O)N[C@H]2CC[C@@H](CNC(=O)CCOCCNC(=O)[C@H]3CC(=O)N(C)[C@@H]3c3cccnc3)CC2)C1` [Example 179, N^1-((1R,2S,5R)-5-(isopropyl(methyl)amino)-2-((S)-2-oxo-3-((6-(trifluoromethyl)quinazolin-4-yl)amino)pyrrolidin-1-yl)cyclohexyl)-N^5-((1R,4S)-4-((3-(2-((2S,3S)-1-methyl-5-oxo-2-(pyridin-3-yl)pyrrolidine-3-carboxamido)ethoxy)propanamido)methyl)cyclohexyl)glutaramide], the “pKd of Antibody” value [3] is reported as 9.24, the EC50 [2] is reported as 0.631 nM and the “% Depletion of CCR2 expressing cells” value [4] is reported as 89.5%.
